According to PubChem BioAssay (NCI):
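Results reflect a 48-hour exposure of cells in 96-well plates to compound at five concentrations. TGI: concentration producing complete growth inhibition.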

Key:
Assay in all cases: growth of human tumour cells (NCI), 48 h
HOP-92 NSCLC = test system: HOP-92 NSCLC
A498 renal = test system: A498 renal
NCI-H460 lung = test system: NCI-H460 lung
M14 melanoma = test system: M14 melanoma
NCI-H226 lung = test system: NCI-H226 lung
786-0 renal = test system: 786-0 renal
HCC-2998 colon = test system: HCC-2998 colon
COLO 205 colon = test system: COLO 205 colon
NCI-H23 lung = test system: NCI-H23 lung
EKVX NSCLC = test system: EKVX NSCLC
CCRF-CEM leukemia = test system: CCRF-CEM leukemia
MDA-MB-435 = test system: MDA-MB-435
CAKI-1 renal = test system: CAKI-1 renal
A549 NSCLC = test system: A549 NSCLC
SK-MEL-2 melanoma = test system: SK-MEL-2 melanoma
SF-268 CNS = test system: SF-268 CNS
SNB-75 CNS = test system: SNB-75 CNS
SN12C renal = test system: SN12C renal
MOLT-4 leukemia = test system: MOLT-4 leukemia
NCI/ADR-RES ovarian = test system: NCI/ADR-RES ovarian
HT29 colon = test system: HT29 colon
LOX IMVI melanoma = test system: LOX IMVI melanoma
RPMI-8226 leukemia = test system: RPMI-8226 leukemia
DU-145 prostate = test system: DU-145 prostate
UO-31 renal = test system: UO-31 renal
SW-620 colon = test system: SW-620 colon
SR leukemia = test system: SR leukemia
NCI-H522 lung = test system: NCI-H522 lung
SK-MEL-28 melanoma = test system: SK-MEL-28 melanoma
MCF7 breast = test system: MCF7 breast
PC-3 prostate = test system: PC-3 prostate
SF-539 CNS = test system: SF-539 CNS
U251 CNS = test system: U251 CNS
SF-295 CNS = test system: SF-295 CNS
T-47D breast = test system: T-47D breast
OVCAR-4 ovarian = test system: OVCAR-4 ovarian
HCT-116 colon = test system: HCT-116 colon
TK-10 renal = test system: TK-10 renal
UACC-257 melanoma = test system: UACC-257 melanoma
MDA-N = test system: MDA-N
OVCAR-8 ovarian = test system: OVCAR-8 ovarian
SNB-19 CNS = test system: SNB-19 CNS
HS 578T breast = test system: HS 578T breast
IGROV1 ovarian = test system: IGROV1 ovarian
K-562 leukemia = test system: K-562 leukemia
ACHN renal = test system: ACHN renal
HL-60(TB) leukemia = test system: HL-60(TB) leukemia
RXF 393 renal = test system: RXF 393 renal
HOP-62 NSCLC = test system: HOP-62 NSCLC
SK-MEL-5 melanoma = test system: SK-MEL-5 melanoma
SK-OV-3 ovarian = test system: SK-OV-3 ovarian
KM12 colon = test system: KM12 colon
MDA-MB-231 breast = test system: MDA-MB-231 breast
BT-549 breast = test system: BT-549 breast
HCT-15 colon = test system: HCT-15 colon
OVCAR-3 ovarian = test system: OVCAR-3 ovarian
MALME-3M melanoma = test system: MALME-3M melanoma

COc1cc(C2SCC(=O)N2c2ccc(Cl)cc2)cc(OC)c1OC (configuration not stated)
TGI (HOP-92 NSCLC): > 100 µM | TGI (A498 renal): > 100 µM | TGI (NCI-H460 lung): > 100 µM | TGI (M14 melanoma): > 57.8 µM | TGI (NCI-H226 lung): 98.4 µM | TGI (786-0 renal): 99.6 µM | TGI (HCC-2998 colon): > 100 µM | TGI (COLO 205 colon): > 56.8 µM | TGI (NCI-H23 lung): > 100 µM | TGI (EKVX NSCLC): > 60.1 µM | TGI (CCRF-CEM leukemia): 30.6 µM | TGI (MDA-MB-435): 19.4 µM | TGI (CAKI-1 renal): > 100 µM | TGI (A549 NSCLC): > 100 µM | TGI (SK-MEL-2 melanoma): > 100 µM | TGI (SF-268 CNS): > 100 µM | TGI (SNB-75 CNS): > 100 µM | TGI (SN12C renal): > 100 µM | TGI (MOLT-4 leukemia): 30.7 µM | TGI (NCI/ADR-RES ovarian): > 100 µM | TGI (HT29 colon): > 41 µM | TGI (LOX IMVI melanoma): > 100 µM | TGI (RPMI-8226 leukemia): > 55.3 µM | TGI (DU-145 prostate): > 100 µM | TGI (UO-31 renal): > 100 µM | TGI (SW-620 colon): > 100 µM | TGI (SR leukemia): 39.2 µM | TGI (NCI-H522 lung): > 100 µM | TGI (SK-MEL-28 melanoma): > 100 µM | TGI (MCF7 breast): > 100 µM | TGI (PC-3 prostate): > 100 µM | TGI (SF-539 CNS): > 100 µM | TGI (U251 CNS): > 100 µM | TGI (SF-295 CNS): > 100 µM | TGI (T-47D breast): > 24.2 µM | TGI (OVCAR-4 ovarian): > 100 µM | TGI (HCT-116 colon): > 100 µM | TGI (TK-10 renal): > 100 µM | TGI (UACC-257 melanoma): > 100 µM | TGI (MDA-N): 20.9 µM | TGI (OVCAR-8 ovarian): > 100 µM | TGI (SNB-19 CNS): > 100 µM | TGI (HS 578T breast): > 100 µM | TGI (IGROV1 ovarian): > 100 µM | TGI (K-562 leukemia): > 52.9 µM | TGI (ACHN renal): > 100 µM | TGI (HL-60(TB) leukemia): 29.2 µM | TGI (RXF 393 renal): 71.2 µM | TGI (HOP-62 NSCLC): > 100 µM | TGI (SK-MEL-5 melanoma): > 100 µM | TGI (SK-OV-3 ovarian): > 100 µM | TGI (KM12 colon): > 82.8 µM | TGI (MDA-MB-231 breast): > 100 µM | TGI (BT-549 breast): > 100 µM | TGI (HCT-15 colon): > 100 µM | TGI (OVCAR-3 ovarian): > 100 µM | TGI (MALME-3M melanoma): > 100 µM
